The record followed here is patent EP3290412A1, “HIV-1 NUCLEOCAPSID INHIBITORS” (Università degli Studi di Siena, priority 2016, dated 2018).

The structures appear in SMILES notation. Where two headings read alike, the source gives them in different places. Bounds are passed on as bounds.

For one test, the target named is NC(11-55) (Human immunodeficiency virus type 1, UniProt P12493). Put plainly: NC inhibition assay (NC-induced cTAR DNA destabilization, fluorescence). Conditions: for inhibition at 100 µM: single point screening, positive = >25% inhibition at 100µM. Format: biochemical, HIV-1. Put shortly: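 Doubly labelled cTAR (0.1 µM, Alexa488/Dabcyl) pre-complexed with 1 µM Zn-loaded NC(11-55) for 15 min, then compound added for a further 15 min; run at 20 °C in Tris-HCl pH 7.5, 30 mM NaCl, 0.2 mM MgCl2. Fluorescence read at ex 480/em 520 nm. IC50 taken from dose-response fit of % inhibition of NC-induced fluorescence increase.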

The target of test [1] is T1, full length (1-55) HIV-1 NCp7 (Human immunodeficiency virus type 1 group M subtype B, UniProt P12493).
T1 construct: recombinant full length (1-55) HIV-1 NCp7 proteins; made in house
The test is described as follows: Electromobility Shift Assay (EMSA), competition for ssDNA binding. Conditions: NCp7 300 nM, M13mp18 ssDNA; positive = >25% inhibition at 100µM. Put shortly:
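Recombinant NL4-3 NCp7 (300 nM in the pre-mix) was combined with compound in 20 mM Tris-HCl pH 7.4, 2 mM MgCl2, 100 mM NaCl, 1 mM DTT, then M13mp18 ssDNA was added for 25 min at 37 °C. Complexes were run on 1% agarose/0.5x TBE and stained with SybrGold. IC50 is the concentration at which bound ssDNA migrated 50% of the bound–unbound distance (triplicate).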

In test [2] the test system is HIV-1 reference strain NL4-3. Put plainly: MonoCycle assay (TZM-bl cells). Format: cell-based. The method, then: MonoCycle assay is a cell based assay allowing the evaluation of antiviral activity of HIV-1 inhibitors targeting the early steps of HIV-1 life cycle such as entry, uncoating of viral particles, reverse transcription and integration. The assay consists in the infection of TZM-bl cells (20,000/well) with the HIV-1 reference strain NL4-3 in presence of serial five-fold dilutions of the investigational inhibitors. After 48 hours, cells were lysed adding 40 µl of Glo Lysis Buffer (Promega) to each well for 5 minutes, then 40 µl of Brighy-Glo Luciferase Reagent (Promega) were added to each well for relative luminescence units (RLU) counting using Glo-Max Multi Detection System (Promega). RLU values from each well were elaborated using the GraphPad v5.0 software to calculate the IC50 of each compound.

Setting [3] is: Human immunodeficiency virus 1, NL43, TZM-bl, 48 h, read-out: Mono Cycle IC50 nM.

With `Cc1cccnc1-c1nc(O)c(O)c(C(=O)N[C@H](C)C2CCCCC2)n1` [Compound 23, (R)-N-(1-cyclohexylethyl)-5,6-dihydroxy-2-(3-methylpyridin-2-yl)pyrimidine-4-carboxamide], at NC(11-55), half-maximal inhibition (IC50) required 20.5 µM and the inhibition at 100 µM was more than 25%. The EMSA screening results in test [1] is “Positive (A compound showing >25% inhibition when tested at 100µM concentration is considered as "positive")”. Besides, the IC50 in test [2] (setting [3]) came to 88500 nM.
At NC(11-55), `O=C(NC1(C2CCCCC2)CC1)c1nc(-c2ccccn2)nc(O)c1O` [Compound 24, N-(1-cyclohexylcyclopropyl)-5,6-dihydroxy-2-(pyridin-2-yl)pyrimidine-4-carboxamide] displayed an IC50 of 22.5 µM and an inhibition at 100 µM of more than 25%. Further, the EMSA screening results in test [1] is on record as “Positive (A compound showing >25% inhibition when tested at 100µM concentration is considered as "positive")”. The IC50 in test [2] (setting [3]) came out at 3610 nM.
At NC(11-55), `C[C@@H](NC(=O)c1nc(-c2ccc(Cl)cn2)nc(O)c1O)C1CCCCC1` [Compound 49, (R)-2-(5-chloropyridin-2-yl)-N-(1-cyclohexylethyl)-5,6-dihydroxypyrimidine-4-carboxamide] showed an IC50 of 9 µM and an inhibition at 100 µM of more than 25%. In addition, in test [2] (setting [3]), the IC50 came out at 10900 nM.
In the case of `C[C@H](NC(=O)c1nc(-c2nccc3[nH]ccc23)nc(O)c1O)C1CCCCC1` [Compound 86, (S)-N-(1-cyclohexylethyl)-5,6-dihydroxy-2-(1H-pyrrolo[3,2-c]pyridin-4-yl)pyrimidine-4-carboxamide], the IC50 on NC(11-55) (cTAR DNA 0.1 µM, 1 µM NC(11-55), 20 °C, pH 7.5, read-out: NC inhibition IC50) is 5.5 µM; in test [2] (setting [3]), more than 50000 nM. This compound had an inhibition at 100 µM against NC(11-55) of more than 25%. In addition, in test [1], the EMSA screening results is given as “Positive (A compound showing >25% inhibition when tested at 100µM concentration is considered as "positive")”.
With `C[C@@H](NC(=O)c1nc(-c2cc(N3CCN(C)CC3)ccn2)nc(O)c1O)C1CCCCC1` [Compound 76, (R)-N-(1-cyclohexylethyl)-5,6-dihydroxy-2-(4-(4-methylpiperazin-1-yl)pyridin-2-yl)pyrimidine-4-carboxamide], the IC50 at NC(11-55) came out at 7 µM; in test [2] (setting [3]), 18300 nM. For the same compound, the inhibition at 100 µM against NC(11-55) was more than 25%. Also, in test [1], the EMSA screening results is given as “Positive (A compound showing >25% inhibition when tested at 100µM concentration is considered as "positive")”.
As for `O=C(NCC1CCCCC1)c1nc(-c2ncccc2Cl)nc(O)c1O` [Compound 16, 2-(3-chloropyridin-2-yl)-N-(cyclohexylmethyl)-5,6-dihydroxypyrimidine-4-carboxamide], the inhibition at 100 µM at NC(11-55) is more than 25%. Besides, the EMSA screening results in test [1] was “Positive (A compound showing >25% inhibition when tested at 100µM concentration is considered as "positive")”. Also, the IC50 in test [2] (Human immunodeficiency virus 1, NL43, TZM-bl cells, NL4-3, 48 hours, read-out: Mono Cycle IC50) stood at 51100 nM.
Consider `O=C(OCCC1CCCCC1)c1nc(-c2ccccn2)nc(O)c1O` [Compound 12, 2-cyclohexylethyl 5,6-dihydroxy-2-(pyridin-2-yl)pyrimidine-4-carboxylate], for which, on NC(11-55), it took 57.5 µM to reach half-maximal inhibition (IC50) and the inhibition at 100 µM was more than 25%. Further, the EMSA screening results in test [1] is recorded as “Negative”. Besides, the IC50 in test [2] (setting [3]) is more than 50000 nM.
Turning to `O=C(NCC1CCC1)c1nc(-c2cc3ccccc3cn2)nc(O)c1O` [Compound 47, N-(cyclobutylmethyl)-5,6-dihydroxy-2-(isoquinolin-3-yl)pyrimidine-4-carboxamide], the IC50 amounted to 6.5 µM against NC(11-55) and 8930 nM in test [2] (setting [3]). Also, the inhibition at 100 µM against NC(11-55) is more than 25%.
The corresponding values for `C[C@@H](NC(=O)c1nc(-c2cc(N)ccn2)nc(O)c1O)C1CCCCC1` [Compound 48, (R)-2-(4-aminopyridin-2-yl)-N-(1-cyclohexylethyl)-5,6-dihydroxypyrimidine-4-carboxamide] are 4 µM, 9870 nM and more than 25%.
